Each molecule was assayed against Beta-3 Adrenergic Receptor (Homo sapiens (Human), UniProt P13945) (assay: HTRF cAMP antagonist assay (IC50 determination)). Conditions: CHO-K1 cells stably expressing recombinant receptor; antagonism of isoproterenol at EC90; cAMP readout.
Format: cell-based
Method in brief: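 In this functional readout, recombinant CHO-K1 cells received compound, then isoproterenol at its EC90. After 1 h at room temperature, cAMP levels were determined by HTRF using an on-plate standard curve, and IC50 values were fitted.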

Sequence of Beta-3 Adrenergic Receptor (P13945 whole entry, species assumed): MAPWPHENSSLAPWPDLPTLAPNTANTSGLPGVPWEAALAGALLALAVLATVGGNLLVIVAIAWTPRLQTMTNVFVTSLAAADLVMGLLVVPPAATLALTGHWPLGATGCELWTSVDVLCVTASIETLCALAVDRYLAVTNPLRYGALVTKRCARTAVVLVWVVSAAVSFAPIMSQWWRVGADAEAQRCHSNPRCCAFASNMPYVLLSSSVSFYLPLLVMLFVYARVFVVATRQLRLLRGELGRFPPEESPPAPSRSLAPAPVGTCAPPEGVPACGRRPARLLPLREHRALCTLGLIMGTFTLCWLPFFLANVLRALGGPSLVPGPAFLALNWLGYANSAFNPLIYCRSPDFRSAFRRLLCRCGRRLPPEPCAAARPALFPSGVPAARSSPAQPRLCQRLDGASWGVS

IC50 | SMILES
12.3 nM | CS(=O)(=O)c1cccc(OC[C@@H](O)CNC2COC3(CCN(S(=O)(=O)c4ccc5c(Cl)cccc5c4)CC3)C2)c1 (stereo partly drawn) [Compound 59, (2S)-1-(8-(5-chloronaphthalen-2-ylsulfonyl)-1-oxa-8-azaspiro[4.5]decan-3-ylamino)-3-(3-(methylsulfonyl)phenoxy)propan-2-ol]
72.4 nM | Cc1c(Br)cccc1S(=O)(=O)N1CCC2(CC1)C[C@H](NC[C@H](O)COc1cccc(S(=O)(=O)C3(CO)CC3)c1)CO2 [Compound 200, (S)-1-((S)-8-(3-bromo-2-methylphenylsulfonyl)-1-oxa-8-azaspiro[4.5]decan-3-ylamino)-3-(3-(1-(hydroxymethyl)cyclopropylsulfonyl)phenoxy)propan-2-ol]
303 nM | O=S(=O)(c1cnc2c(c1)OCCO2)N1CCC2(CC1)C[C@@H](NC[C@H](O)COc1cccc(S(=O)(=O)C3(CO)CC3)c1)CO2 [Compound 285, (S)-1-((R)-8-(2,3-dihydro-[1,4]dioxino[2,3-b]pyridin-7-ylsulfonyl)-1-oxa-8-azaspiro[4.5]decan-3-ylamino)-3-(3-(1-(hydroxymethyl)cyclopropylsulfonyl)phenoxy)propan-2-ol]
258 nM | O=S(=O)(c1cncc(Br)c1)N1CCC2(CC1)C[C@@H](NC[C@H](O)COc1cccc(S(=O)(=O)C3(CO)CC3)c1)CO2 [Compound 185, (S)-1-((R)-8-(5-bromopyridin-3-ylsulfonyl)-1-oxa-8-azaspiro[4.5]decan-3-ylamino)-3-(3-(1-(hydroxymethyl)cyclopropylsulfonyl)phenoxy)propan-2-ol]
78.2 nM | CC(C)CS(=O)(=O)c1cccc(OC[C@@H](O)CN[C@H]2COC3(CCN(S(=O)(=O)c4cnc5ccccc5c4)CC3)C2)c1 [Compound 124, (S)-1-(3-(isobutylsulfonyl)phenoxy)-3-((R)-8-(quinolin-3-ylsulfonyl)-1-oxa-8-azaspiro[4.5]decan-3-ylamino)propan-2-ol]
85 nM | Cc1c(-c2ccc(CN)cc2)cccc1S(=O)(=O)N1CCC2(CC1)C[C@H](NC[C@H](O)COc1cccc(S(=O)(=O)C3(CO)CC3)c1)CO2 [Compound 197, (S)-1-((S)-8-(4′-(aminomethyl)-2-methylbiphenyl-3-ylsulfonyl)-1-oxa-8-azaspiro[4.5]decan-3-ylamino)-3-(3-(1-(hydroxymethyl)cyclopropylsulfonyl)phenoxy)propan-2-ol]
41.8 nM | COc1ccc(S(=O)(=O)N2CCC3(CC2)C[C@H](NC[C@H](O)COc2cccc(S(=O)(=O)C4(CO)CC4)c2)CO3)cc1Br [Compound 201, (S)-1-((S)-8-(3-bromo-4-methoxyphenylsulfonyl)-1-oxa-8-azaspiro[4.5]decan-3-ylamino)-3-(3-(1-(hydroxymethyl)cyclopropylsulfonyl)phenoxy)propan-2-ol]
42.2 nM | CS(=O)(=O)c1cccc(OC[C@@H](O)CNC2COC3(CCN(S(=O)(=O)c4cccc(C(F)(F)F)c4)CC3)C2)c1 (stereo partly drawn) [Compound 50, (2S)-1-(3-(methylsulfonyl)phenoxy)-3-(8-(3-(trifluoromethyl)phenylsulfonyl)-1-oxa-8-azaspiro[4.5]decan-3-ylamino)propan-2-ol]
24.8 nM | CN1CCOc2ncc(S(=O)(=O)N3CCC4(CC3)C[C@@H](NC[C@H](O)COc3cccc(S(=O)(=O)C(F)(F)CO)c3)CO4)cc21 [Compound 156, (S)-1-(3-(1,1-difluoro-2-hydroxyethylsulfonyl)phenoxy)-3-((R)-8-(1-methyl-2,3-dihydro-1H-pyrido[2,3-b][1,4]oxazin-7-ylsulfonyl)-1-oxa-8-azaspiro[4.5]decan-3-ylamino)propan-2-ol]
287 nM | O=S(=O)(CCO)c1cccc(OC[C@@H](O)CN[C@H]2COC3(CCN(S(=O)(=O)c4ccc(-c5cccnc5)cc4)CC3)C2)c1 [Compound 99, (S)-1-(3-(2-hydroxyethylsulfonyl)phenoxy)-3-((R)-8-(4-(pyridin-3-yl)phenylsulfonyl)-1-oxa-8-azaspiro[4.5]decan-3-ylamino)propan-2-ol]
44.3 nM | CCn1cc(S(=O)(=O)N2CCC3(CC2)C[C@@H](NC[C@H](O)COc2cccc(S(=O)(=O)C(C)F)c2)CO3)c(=O)c2ccccc21 (stereo partly drawn) [Compound 299, 1-ethyl-3-((3R)-3-((2S)-3-(3-(1-fluoroethylsulfonyl)phenoxy)-2-hydroxypropylamino)-1-oxa-8-azaspiro[4.5]decan-8-ylsulfonyl)quinolin-4(1H)-one]
252 nM | O=S(=O)(c1cccc(OC[C@@H](O)CNC2COC3(CCN(S(=O)(=O)c4ccc5ccccc5c4)CC3)C2)c1)C1CNC1 (stereo partly drawn) [Compound 21, (2S)-1-(3-(azetidin-3-ylsulfonyl)phenoxy)-3-(8-(naphthalen-2-ylsulfonyl)-1-oxa-8-azaspiro[4.5]decan-3-ylamino)propan-2-ol]
97.8 nM | O=S(=O)(CC1CCC1)c1cccc(OC[C@@H](O)CNC2COC3(CCN(S(=O)(=O)c4ccc5ccccc5c4)CC3)C2)c1 (stereo partly drawn) [Compound 13, (2S)-1-(3-(cyclobutylmethylsulfonyl)phenoxy)-3-(8-(naphthalen-2-ylsulfonyl)-1-oxa-8-azaspiro[4.5]decan-3-ylamino)propan-2-ol]
26.8 nM | CC(C)S(=O)(=O)c1cccc(OC[C@@H](O)CN[C@H]2COC3(CCN(S(=O)(=O)c4ccc5ncccc5c4)CC3)C2)c1 [Compound 113, (S)-1-(3-(isopropylsulfonyl)phenoxy)-3-((R)-8-(quinolin-6-ylsulfonyl)-1-oxa-8-azaspiro[4.5]decan-3-ylamino)propan-2-ol]
48.2 nM | CN1CCOc2ncc(S(=O)(=O)N3CCC4(CC3)C[C@@H](NC[C@H](O)COc3cccc(S(=O)(=O)C5(CO)CC5)c3)CO4)cc21 [Compound 155, (S)-1-(3-(1-(hydroxymethyl)cyclopropylsulfonyl)phenoxy)-3-((R)-8-(1-methyl-2,3-dihydro-1H-pyrido[2,3-b][1,4]oxazin-7-ylsulfonyl)-1-oxa-8-azaspiro[4.5]decan-3-ylamino)propan-2-ol]
24.7 nM | NCc1ccc(-c2cccc(S(=O)(=O)N3CCC4(CC3)C[C@H](NC[C@H](O)COc3cccc(S(=O)(=O)C5(CO)CC5)c3)CO4)c2)cc1F [Compound 182, (S)-1-((S)-8-(4′-(aminomethyl)-3′-fluorobiphenyl-3-ylsulfonyl)-1-oxa-8-azaspiro[4.5]decan-3-ylamino)-3-(3-(1-(hydroxymethyl)cyclopropylsulfonyl)phenoxy)propan-2-ol]
130 nM | CCn1cc(S(=O)(=O)N2CCC3(CC2)C[C@H](NC[C@H](O)COc2cccc(S(=O)(=O)C4(CO)CC4)c2)CO3)c(=O)c2ccccc21 [Compound 293, 1-ethyl-3-((S)-3-((S)-2-hydroxy-3-(3-(1-(hydroxymethyl)cyclopropylsulfonyl)phenoxy)propylamino)-1-oxa-8-azaspiro[4.5]decan-8-ylsulfonyl)quinolin-4(1H)-one]
21.6 nM | NC1(c2ccc(-c3cc(S(=O)(=O)N4CCC5(CC4)C[C@H](NC[C@H](O)COc4cccc(S(=O)(=O)C6(CO)CC6)c4)CO5)ccc3F)cc2)CC1 [Compound 219, (S)-1-((S)-8-(4′-(1-aminocyclopropyl)-6-fluorobiphenyl-3-ylsulfonyl)-1-oxa-8-azaspiro[4.5]decan-3-ylamino)-3-(3-(1-(hydroxymethyl)cyclopropylsulfonyl)phenoxy)propan-2-ol]
96.4 nM | O=C1NCc2ncc(S(=O)(=O)N3CCC4(CC3)C[C@@H](NC[C@H](O)COc3cccc(S(=O)(=O)C5CC5)c3)CO4)cc21 [Compound 280, 3-((R)-3-((S)-3-(3-(cyclopropylsulfonyl)phenoxy)-2-hydroxypropylamino)-1-oxa-8-azaspiro[4.5]decan-8-ylsulfonyl)-6,7-dihydro-5H-pyrrolo[3,4-b]pyridin-5-one]
487 nM | CS(=O)(=O)c1cccc(OC[C@@H](O)CNC2COC3(CCN(C(=O)c4ccc5ccccc5c4)CC3)C2)c1 (stereo partly drawn) [Compound 57, (3-((S)-2-hydroxy-3-(3-(methylsulfonyl)phenoxy)propylamino)-1-oxa-8-azaspiro[4.5]decan-8-yl)(naphthalen-2-yl)methanone]
416 nM | Cc1ccc(-c2cccc(S(=O)(=O)N3CCC4(CC3)C[C@@H](NC[C@H](O)COc3cccc(S(=O)(=O)C5(CO)CC5)c3)CO4)c2)cc1 [Compound 170, (S)-1-(3-(1-(hydroxymethyl)cyclopropylsulfonyl)phenoxy)-3-((R)-8-(4′-methylbiphenyl-3-ylsulfonyl)-1-oxa-8-azaspiro[4.5]decan-3-ylamino)propan-2-ol]
108 nM | Cc1cccc(-c2cccc(S(=O)(=O)N3CCC4(CC3)C[C@@H](NC[C@H](O)COc3cccc(S(=O)(=O)CCO)c3)CO4)c2)n1 [Compound 128, (S)-1-(3-(2-hydroxyethylsulfonyl)phenoxy)-3-((R)-8-(3-(6-methylpyridin-2-yl)phenylsulfonyl)-1-oxa-8-azaspiro[4.5]decan-3-ylamino)propan-2-ol]
982 nM | CC(C)(C)NCc1ccc(-c2cccc(S(=O)(=O)N3CCC4(CC3)C[C@@H](NC[C@H](O)COc3cccc(S(=O)(=O)C5(CO)CC5)c3)CO4)c2)cc1 [Compound 262, (S)-1-((R)-8-(4′-((tert-butylamino)methyl)biphenyl-3-ylsulfonyl)-1-oxa-8-azaspiro[4.5]decan-3-ylamino)-3-(3-(1-(hydroxymethyl)cyclopropylsulfonyl)phenoxy)propan-2-ol]
17.9 nM | COc1ccc(S(=O)(=O)N2CCC3(CC2)C[C@H](NC[C@H](O)COc2cccc(S(=O)(=O)C4CC4)c2)CO3)cc1-c1ccc(CN)cc1 [Compound 227, (S)-1-((S)-8-(4′-(aminomethyl)-6-methoxybiphenyl-3-ylsulfonyl)-1-oxa-8-azaspiro[4.5]decan-3-ylamino)-3-(3-(cyclopropylsulfonyl)phenoxy)propan-2-ol]
34.3 nM | CS(=O)(=O)c1cccc(OC[C@@H](O)CNC2COC3(CCN(S(=O)(=O)c4ccc(Cl)c5nonc45)CC3)C2)c1 (stereo partly drawn) [Compound 30, (2S)-1-(8-(7-chlorobenzo[c][1,2,5]oxadiazol-4-ylsulfonyl)-1-oxa-8-azaspiro[4.5]decan-3-ylamino)-3-(3-(methylsulfonyl)phenoxy)propan-2-ol]

Source: patent US10927123B2, “Modulators of the beta-3 adrenergic receptor useful for the treatment or prevention of disorders related thereto” (Arena Pharmaceuticals, Inc., priority 2016, dated 2021)
